The supplement of paper PMC8612539

What was measured:
Mannheimia haemolytica = test: minimum inhibitory concentration (MIC)
Procedure: (§1)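 Broth microdilution MIC (Sensititre BOPO7F bovine plate, CLSI methods) of 19 antimicrobials against field isolates of P. multocida, M. haemolytica, H. somni (deep nasopharyngeal swabs) and E. coli, Enterococcus spp. (rectal swabs) from weaned dairy heifers. Incubation 16-24 h at 35 C. MIC is the lowest concentration preventing visible growth. Values with <= or > lie at the tested range limits. Trimethoprim-sulfamethoxazole is given as the trimethoprim component of a 1:19 mixture.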

Enterococcus spp. = test: minimum inhibitory concentration (MIC)
Procedure: as §1

[1] = isolate (source animal id): 122
[2] = isolate (source animal id): 123
[3] = isolate (source animal id): 133
[4] = isolate (source animal id): 171
[5] = isolate (source animal id): 183
[6] = isolate (source animal id): 187
[7] = isolate (source animal id): 190
[8] = isolate (source animal id): 211
[9] = isolate (source animal id): 223
[10] = isolate (source animal id): 241
[11] = isolate (source animal id): 252
[12] = isolate (source animal id): 282
[13] = isolate (source animal id): 298
[14] = isolate (source animal id): 320
[15] = isolate (source animal id): 333

Measured: minimum inhibitory concentration

CC[C@H]1OC(=O)C[C@@H](O)[C@H](C)[C@@H](O[C@@H]2O[C@H](C)[C@@H](O[C@H]3C[C@@](C)(O)[C@@H](O)[C@H](C)O3)[C@H](N(C)C)[C@H]2O)[C@@H](CC=O)C[C@@H](C)C(=O)/C=C/C(C)=C/[C@@H]1CO[C@@H]1O[C@H](C)[C@@H](O)[C@@H](OC)[C@H]1OC [Tylosin]
32 µg/mL: Mannheimia haemolytica; isolate (source animal id): 40 | Mannheimia haemolytica; isolate (source animal id): 55 | Mannheimia haemolytica; isolate (source animal id): 179 | Mannheimia haemolytica; isolate (source animal id): 300
> 32 µg/mL: Mannheimia haemolytica; isolate (source animal id): 8 | Mannheimia haemolytica; isolate (source animal id): 13 | Mannheimia haemolytica; isolate (source animal id): 18 | Mannheimia haemolytica; isolate (source animal id): 21 | Mannheimia haemolytica; isolate (source animal id): 25 | Mannheimia haemolytica; isolate (source animal id): 27 | Mannheimia haemolytica; isolate (source animal id): 28 | Mannheimia haemolytica; isolate (source animal id): 30 | Mannheimia haemolytica; isolate (source animal id): 31 | Mannheimia haemolytica; isolate (source animal id): 32 | Mannheimia haemolytica; isolate (source animal id): 34 | Mannheimia haemolytica; isolate (source animal id): 36 | Mannheimia haemolytica; isolate (source animal id): 37 | Mannheimia haemolytica; isolate (source animal id): 41 | Mannheimia haemolytica; isolate (source animal id): 43 | Mannheimia haemolytica; isolate (source animal id): 46 | Mannheimia haemolytica; isolate (source animal id): 49 | Mannheimia haemolytica; isolate (source animal id): 50 | Mannheimia haemolytica; isolate (source animal id): 51 | Mannheimia haemolytica; isolate (source animal id): 52 | Mannheimia haemolytica; isolate (source animal id): 53 | Mannheimia haemolytica; isolate (source animal id): 56 | Mannheimia haemolytica; isolate (source animal id): 57 | Mannheimia haemolytica; isolate (source animal id): 100 | Mannheimia haemolytica; isolate (source animal id): 103 | Mannheimia haemolytica; isolate (source animal id): 107 | Mannheimia haemolytica; isolate (source animal id): 108 | Mannheimia haemolytica; isolate (source animal id): 112 | Mannheimia haemolytica; isolate (source animal id): 113 | Mannheimia haemolytica; isolate (source animal id): 121 | Mannheimia haemolytica; [1] | Mannheimia haemolytica; [2] | Mannheimia haemolytica; isolate (source animal id): 126 | Mannheimia haemolytica; [3] | Mannheimia haemolytica; isolate (source animal id): 135 | Mannheimia haemolytica; isolate (source animal id): 138 | Mannheimia haemolytica; isolate (source animal id): 141 | Mannheimia haemolytica; isolate (source animal id): 142 | Mannheimia haemolytica; isolate (source animal id): 145 | Mannheimia haemolytica; isolate (source animal id): 149 | Mannheimia haemolytica; isolate (source animal id): 151 | Mannheimia haemolytica; isolate (source animal id): 152 | Mannheimia haemolytica; isolate (source animal id): 154 | Mannheimia haemolytica; isolate (source animal id): 159 | Mannheimia haemolytica; isolate (source animal id): 162 | Mannheimia haemolytica; isolate (source animal id): 170 | Mannheimia haemolytica; [4] | Mannheimia haemolytica; isolate (source animal id): 172 | Mannheimia haemolytica; isolate (source animal id): 173 | Mannheimia haemolytica; isolate (source animal id): 180 | Mannheimia haemolytica; [5] | Mannheimia haemolytica; isolate (source animal id): 186 | Mannheimia haemolytica; [6] | Mannheimia haemolytica; isolate (source animal id): 188 | Mannheimia haemolytica; [7] | Mannheimia haemolytica; isolate (source animal id): 191 | Mannheimia haemolytica; isolate (source animal id): 192 | Mannheimia haemolytica; isolate (source animal id): 201 | Mannheimia haemolytica; isolate (source animal id): 202 | Mannheimia haemolytica; isolate (source animal id): 209 | Mannheimia haemolytica; [8] | Mannheimia haemolytica; isolate (source animal id): 220 | Mannheimia haemolytica; isolate (source animal id): 221 | Mannheimia haemolytica; [9] | Mannheimia haemolytica; isolate (source animal id): 233 | Mannheimia haemolytica; isolate (source animal id): 237 | Mannheimia haemolytica; [10] | Mannheimia haemolytica; [11] | Mannheimia haemolytica; isolate (source animal id): 253 | Mannheimia haemolytica; isolate (source animal id): 259 | Mannheimia haemolytica; isolate (source animal id): 260 | Mannheimia haemolytica; isolate (source animal id): 262 | Mannheimia haemolytica; [12] | Mannheimia haemolytica; isolate (source animal id): 287 | Mannheimia haemolytica; isolate (source animal id): 288 | Mannheimia haemolytica; isolate (source animal id): 291 | Mannheimia haemolytica; isolate (source animal id): 293 | Mannheimia haemolytica; [13] | Mannheimia haemolytica; isolate (source animal id): 299 | Mannheimia haemolytica; isolate (source animal id): 302 | Mannheimia haemolytica; isolate (source animal id): 304 | Mannheimia haemolytica; isolate (source animal id): 306 | Mannheimia haemolytica; isolate (source animal id): 308 | Mannheimia haemolytica; isolate (source animal id): 309 | Mannheimia haemolytica; isolate (source animal id): 313 | Mannheimia haemolytica; isolate (source animal id): 318 | Mannheimia haemolytica; [14] | Mannheimia haemolytica; isolate (source animal id): 321 | Mannheimia haemolytica; isolate (source animal id): 323 | Mannheimia haemolytica; isolate (source animal id): 324 | Mannheimia haemolytica; isolate (source animal id): 326 | Mannheimia haemolytica; isolate (source animal id): 328 | Mannheimia haemolytica; isolate (source animal id): 329 | Mannheimia haemolytica; [15] | Mannheimia haemolytica; isolate (source animal id): 335 | Mannheimia haemolytica; isolate (source animal id): 338 | Enterococcus spp.; isolate (source animal id): 35 | Enterococcus spp.; [1] | Enterococcus spp.; isolate (source animal id): 158 | Enterococcus spp.; isolate (source animal id): 175 | Enterococcus spp.; isolate (source animal id): 228 | Enterococcus spp.; isolate (source animal id): 230 | Enterococcus spp.; isolate (source animal id): 235 | Enterococcus spp.; [10] | Enterococcus spp.; isolate (source animal id): 247 | Enterococcus spp.; [11] | Enterococcus spp.; isolate (source animal id): 268 | Enterococcus spp.; isolate (source animal id): 285 | Enterococcus spp.; isolate (source animal id): 310 | Enterococcus spp.; isolate (source animal id): 341
4 µg/mL: Enterococcus spp.; isolate (source animal id): 177 | Enterococcus spp.; isolate (source animal id): 222 | Enterococcus spp.; isolate (source animal id): 290 | Enterococcus spp.; isolate (source animal id): 331
≤ 0.5 µg/mL: Enterococcus spp.; [13]
8 µg/mL: Enterococcus spp.; isolate (source animal id): 236
2 µg/mL: Enterococcus spp.; isolate (source animal id): 2 | Enterococcus spp.; isolate (source animal id): 42 | Enterococcus spp.; isolate (source animal id): 44 | Enterococcus spp.; isolate (source animal id): 79 | Enterococcus spp.; isolate (source animal id): 88 | Enterococcus spp.; isolate (source animal id): 91 | Enterococcus spp.; isolate (source animal id): 92 | Enterococcus spp.; isolate (source animal id): 111 | Enterococcus spp.; [2] | Enterococcus spp.; [3] | Enterococcus spp.; isolate (source animal id): 168 | Enterococcus spp.; isolate (source animal id): 169 | Enterococcus spp.; [4] | Enterococcus spp.; isolate (source animal id): 181 | Enterococcus spp.; isolate (source animal id): 182 | Enterococcus spp.; [5] | Enterococcus spp.; [6] | Enterococcus spp.; [7] | Enterococcus spp.; isolate (source animal id): 194 | Enterococcus spp.; isolate (source animal id): 195 | Enterococcus spp.; isolate (source animal id): 197 | Enterococcus spp.; [8] | Enterococcus spp.; isolate (source animal id): 214 | Enterococcus spp.; [9] | Enterococcus spp.; isolate (source animal id): 239 | Enterococcus spp.; isolate (source animal id): 244 | Enterococcus spp.; isolate (source animal id): 246 | Enterococcus spp.; isolate (source animal id): 250 | Enterococcus spp.; [12] | Enterococcus spp.; isolate (source animal id): 289 | Enterococcus spp.; isolate (source animal id): 296 | Enterococcus spp.; isolate (source animal id): 301 | Enterococcus spp.; [14] | Enterococcus spp.; [15]
